Assays:
[1] = system: Sciatic nerve chronic constriction injury; test: Sciatic nerve chronic constriction injury (CCI) in rats, tactile allodynia test; assay type: in vivo, rat; conditions: 100 mg/ml, 0.25 ml IP; days 10, 16, 25 and 30
From the text: (§1) Seventy seven male Sprague Dawley rats, 3 months old, approximately 200-250 g at study initiation were included in the study. Minimum and maximum weights of the group were within a range of ±20% of group mean weight. Following several days of habituation the rats underwent baseline measurements for pain behavior (tactile-allodynia) and motor sensory assessment (rotarod test). All the rats underwent Sciatic nerve chronic constriction injury (CCI); pain development was verified on the 6th day following the operation and sensory motor behavior on the 7th. On the 8th day following the procedure the rats were assigned randomly to the various treatment groups (Table 5). Pain levels were assessed on the 6th, 10th, 16th, 25th and 30th days following the procedure. Motor sensory coordination was assessed on the 11th, 21st, 26th and 34th days. […]
Pain level was evaluated using a Tactile allodynia test. In this test, the withdrawal response to calibrated Von Frey fibers is measured. […] Each fiber was applied to the paw five times and a percentage score of responses was calculated (see Flatters et al., Pain, 2004, 109:150-161). […]
(§2) Data were tabulated and analyzed using StatView software version 5.0 (SAS Institute Inc., San Francisco, Calif., USA). […] Behavioral statistics were calculated only for rats with data at all time points. […]

[2] = system: motor sensory coordination; test: Sciatic nerve chronic constriction injury (CCI) in rats, Rotarod test; assay type: in vivo, rat; conditions: 100 mg/ml, 0.25 ml IP
From the text: as §1, with “days. On the 35th day the rats were euthanized, the sciatic nerves (both sides) were collected and embedded in paraffin.” for “days.”
Motor sensory coordination was evaluated with the Rotarod Test. […] The rodent's ability to remain on the rotating rod is recorded (time in seconds). […]
as §2

NCC1(CC(=O)O)CCCCC1 [gabapentin]
pain (responses to 26 g stimuli) compared to day 6 [1]: significantly reduced the pain
time spent on the rotarod (motor sensory coordination) [2]: significant reduction in the time spent on the rotarod

Reference: patent US9040035B2, “Treatment of pain using placental stem cells” (ANTHROGENESIS CORPORATION, priority 2011, dated 2015)
